From US20240294550A1, “8-OXA-3-AZABICYCLO[3.2.1]OCTANE COMPOUNDS OR SALT THEREOF, AND PREPARATION METHOD AND USE THEREOF” (LITTDD MEDICINES LTD, priority 2021, published 2024)
Converted amounts (≈) assume the structure as drawn.

Assays:
[1] = Metabolic stability in mouse liver microsomes; assay type: in vitro ADME, CD-1 mice
Procedure: Drug-like Properties: Concepts, Structure Design and Methods: from ADME to Toxicity Optimization. […] Screen. […] After incubation for appropriate time (such as 5, 10, 20, 30 and 60 minutes), samples were collected, and an appropriate termination solution (glacial acetonitrile containing 200 ng/mL tolbutamide and 200 ng/mL labetalol (i.e. acetonitrile at 4° C.)) was added to stop the reaction. Sample treatment (n=1): each appropriate sample was added, vortexed and centrifuged at high speed. The supernatants were collected, and detected the substrate by HPLC-MS/MS. The peak area at the 0 min was set as 100%. The peak areas at other time points were converted to percentages of the remaining amount. The natural logarithms of the percentage of remaining amount at each time point was plotted against the incubation time, and the slope (−k) was calculated. Then, Clint (μL/min/mg) and half-life (T½, min) of the compounds were calculated following the equation: Inherent clearance rate (Clint)=(k*Volume of incubation solution)/Mass of liver microsomes.

ATR = ATR (Homo sapiens (Human), UniProt Q13535); assay: ATR kinase inhibition assay (HTRF); assay type: biochemical; conditions: p53 substrate, ATP 150 nM
Procedure: This experiment adopted Homogeneous time-resolved fluorescence technology (HTRF®) of Cisbio Company for assay.
Experiment method: buffers were prepared as follows:
Preparation of solutions of the test compounds: The example compounds shown in the table below were prepared into solutions using DMSO as solvent, the stock solution typically being 10 mM. The maximum starting concentration in this experiment was 3 μM, DMSO 3-fold serial dilutions for concentrations, the serially diluted solution was added to each well of the corresponding 384-well plate (geriner bio-one, Cat #784075) to give final concentrations of 3000, 1000, 333, 111, 37, 12.3, 4.12, 1.37, 0.457, 0.152 nM, respectively, and the corresponding amount of DMSO was added to the additional wells to be used as negative or positive control wells, respectively.
The enzyme and substrate were separately dissolved and diluted in two tubes with the buffer prepared above at the following concentrations:
5 μL of the ATR protein solution from tube A was added to the compound-containing wells and the negative control wells in the assay plates using an electric multichannel pipettor, and the same volume of the prepared buffer (medium only, no enzyme) was added to the positive control wells. The plates were centrifuged for one minute at 1000 rpm, and then placed in an incubator at 25° C. for 15 minutes. 5 μL of the substrate mix solution from tube B was added to the positive control well, negative control well and the compound-containing well of the assay plates in the same manner, centrifuged and incubated at 25° C. for 90 minutes.
During the reaction, after ATR phosphorylated the substrate p53, two antibodies were added. Among them, anti-phospho-p53-Eu, as an energy donor, can specifically bind to the phosphorylation site of p53, while anti-GST-d2, as an energy receptor, can specifically bind to the GST-tagged p53. Upon excitation by a laser with certain wavelength (the excitation wavelength in this experiment is 340 nm), the energy donor can emit emission light of 615 nm, and when the energy donor and the energy receptor are close enough in space (that is, two antibodies are connected to p53 at the same time), energy transfer can occur between the energy donor and the energy receptor, so that the energy receptor can emit emission light of 665 nm. The two emission lights were detected by a plate reader, and the ratio of the signals at 665 nm and 615 nm was calculated. The IC50 of the samples tested can be obtained by plotting and calculation.
10 μL per well of the detection solution was added to the positive control, negative control and compound wells of the assay plate using an electric multichannel pipette, centrifuged and incubated overnight at 4° C., and read with the plate reader Envision 2104.
Compound inhibition rate was calculated using interpolation. The mean values of the positive and negative controls were calculated respectively, and the following formula was used to calculate the inhibition rates of the compounds:
Inhibition rate Minimum response+(Compound concentration ^Curve slope)*(Maximum response−Minimum response)/(Compound concentration^Curve slope+Half inhibition concentration ^Curve slope)
The IC50 value of each compound to enzyme activity was obtained.

[2] = Equilibrium solubility in FaSSIF; assay type: physicochemical; conditions: thermodynamic from solid; FaSSIF pH 6.5, shaken 24 hours
Procedure: The compound powder was weighed into a volumetric flask, 450 μL of pH 6.5 FaSSIF solution was added to obtain a supersaturated suspension, the samples were vortexed for at least 2 minutes, and the volumetric flasks were shaken on a vibrating screen at 800 rpm for 24 hours, and then centrifuged at 4000 rpm for 20 minutes. The compressed filtrate was added to a HPLC system, and the concentrations were calculated by a standard curve method.

ATR, sequence (Q13535 whole entry): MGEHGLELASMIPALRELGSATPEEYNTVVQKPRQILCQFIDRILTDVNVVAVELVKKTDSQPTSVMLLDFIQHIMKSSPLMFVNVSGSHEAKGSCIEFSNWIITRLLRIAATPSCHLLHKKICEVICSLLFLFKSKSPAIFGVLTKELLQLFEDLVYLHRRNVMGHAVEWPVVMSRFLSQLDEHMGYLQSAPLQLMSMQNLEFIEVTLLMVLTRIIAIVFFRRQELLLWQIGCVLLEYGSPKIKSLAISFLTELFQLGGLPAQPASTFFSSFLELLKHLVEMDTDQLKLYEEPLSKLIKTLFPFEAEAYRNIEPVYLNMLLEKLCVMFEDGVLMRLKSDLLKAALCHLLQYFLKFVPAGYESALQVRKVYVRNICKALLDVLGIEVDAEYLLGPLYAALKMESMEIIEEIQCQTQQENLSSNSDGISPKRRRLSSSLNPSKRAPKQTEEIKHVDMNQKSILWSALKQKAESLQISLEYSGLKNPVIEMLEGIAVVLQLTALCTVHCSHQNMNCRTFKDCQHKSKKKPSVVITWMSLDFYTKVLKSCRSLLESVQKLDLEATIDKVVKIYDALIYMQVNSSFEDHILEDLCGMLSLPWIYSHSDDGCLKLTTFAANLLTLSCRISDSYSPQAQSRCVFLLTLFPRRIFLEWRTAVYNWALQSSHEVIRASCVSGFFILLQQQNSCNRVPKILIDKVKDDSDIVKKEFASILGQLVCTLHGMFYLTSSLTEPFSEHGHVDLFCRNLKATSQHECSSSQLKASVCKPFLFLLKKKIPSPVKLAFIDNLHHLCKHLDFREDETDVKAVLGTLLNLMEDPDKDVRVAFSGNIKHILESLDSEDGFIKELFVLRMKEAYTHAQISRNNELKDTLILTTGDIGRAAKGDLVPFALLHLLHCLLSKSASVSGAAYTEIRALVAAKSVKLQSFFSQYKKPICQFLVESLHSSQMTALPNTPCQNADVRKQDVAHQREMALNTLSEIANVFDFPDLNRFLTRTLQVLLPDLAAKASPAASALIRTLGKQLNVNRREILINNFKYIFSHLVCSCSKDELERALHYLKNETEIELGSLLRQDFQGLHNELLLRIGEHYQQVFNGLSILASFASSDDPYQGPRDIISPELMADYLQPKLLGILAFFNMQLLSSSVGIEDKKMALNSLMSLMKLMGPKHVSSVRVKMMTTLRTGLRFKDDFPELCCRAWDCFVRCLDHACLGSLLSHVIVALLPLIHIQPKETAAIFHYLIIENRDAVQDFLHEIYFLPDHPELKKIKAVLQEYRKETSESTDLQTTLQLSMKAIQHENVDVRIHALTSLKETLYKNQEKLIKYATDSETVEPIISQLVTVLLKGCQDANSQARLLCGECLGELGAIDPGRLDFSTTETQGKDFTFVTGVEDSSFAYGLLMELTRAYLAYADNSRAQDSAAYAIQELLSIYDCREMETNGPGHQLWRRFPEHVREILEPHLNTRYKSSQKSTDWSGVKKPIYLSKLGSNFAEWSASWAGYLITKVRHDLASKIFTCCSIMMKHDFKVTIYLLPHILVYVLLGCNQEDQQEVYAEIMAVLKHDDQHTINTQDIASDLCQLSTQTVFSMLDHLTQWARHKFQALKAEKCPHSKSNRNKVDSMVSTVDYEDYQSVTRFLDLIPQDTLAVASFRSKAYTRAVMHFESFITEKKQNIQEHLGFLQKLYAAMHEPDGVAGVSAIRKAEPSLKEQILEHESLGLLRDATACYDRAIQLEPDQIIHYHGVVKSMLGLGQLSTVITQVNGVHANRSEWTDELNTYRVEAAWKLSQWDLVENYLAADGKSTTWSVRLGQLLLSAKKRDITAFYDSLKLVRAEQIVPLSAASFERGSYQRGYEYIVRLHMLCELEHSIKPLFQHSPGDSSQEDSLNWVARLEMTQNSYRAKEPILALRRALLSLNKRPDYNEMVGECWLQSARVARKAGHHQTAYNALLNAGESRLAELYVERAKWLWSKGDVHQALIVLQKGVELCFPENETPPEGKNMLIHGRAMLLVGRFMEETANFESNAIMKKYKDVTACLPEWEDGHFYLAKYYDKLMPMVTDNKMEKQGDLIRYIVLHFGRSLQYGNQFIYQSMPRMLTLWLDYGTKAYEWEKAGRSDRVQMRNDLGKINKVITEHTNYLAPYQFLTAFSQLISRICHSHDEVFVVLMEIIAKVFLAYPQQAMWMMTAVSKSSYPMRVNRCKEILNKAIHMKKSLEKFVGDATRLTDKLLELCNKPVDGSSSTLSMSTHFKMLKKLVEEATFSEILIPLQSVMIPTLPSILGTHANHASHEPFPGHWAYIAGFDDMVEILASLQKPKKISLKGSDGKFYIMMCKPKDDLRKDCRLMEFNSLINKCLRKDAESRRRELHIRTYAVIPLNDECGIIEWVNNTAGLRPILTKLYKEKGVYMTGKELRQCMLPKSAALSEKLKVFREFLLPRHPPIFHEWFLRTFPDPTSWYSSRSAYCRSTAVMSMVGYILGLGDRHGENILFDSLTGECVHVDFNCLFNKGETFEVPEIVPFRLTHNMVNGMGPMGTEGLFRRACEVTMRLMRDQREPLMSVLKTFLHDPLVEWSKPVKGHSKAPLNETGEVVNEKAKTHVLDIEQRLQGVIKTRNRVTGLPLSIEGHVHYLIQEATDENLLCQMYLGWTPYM
ATR, sequence (Q8WXE1 whole entry partner): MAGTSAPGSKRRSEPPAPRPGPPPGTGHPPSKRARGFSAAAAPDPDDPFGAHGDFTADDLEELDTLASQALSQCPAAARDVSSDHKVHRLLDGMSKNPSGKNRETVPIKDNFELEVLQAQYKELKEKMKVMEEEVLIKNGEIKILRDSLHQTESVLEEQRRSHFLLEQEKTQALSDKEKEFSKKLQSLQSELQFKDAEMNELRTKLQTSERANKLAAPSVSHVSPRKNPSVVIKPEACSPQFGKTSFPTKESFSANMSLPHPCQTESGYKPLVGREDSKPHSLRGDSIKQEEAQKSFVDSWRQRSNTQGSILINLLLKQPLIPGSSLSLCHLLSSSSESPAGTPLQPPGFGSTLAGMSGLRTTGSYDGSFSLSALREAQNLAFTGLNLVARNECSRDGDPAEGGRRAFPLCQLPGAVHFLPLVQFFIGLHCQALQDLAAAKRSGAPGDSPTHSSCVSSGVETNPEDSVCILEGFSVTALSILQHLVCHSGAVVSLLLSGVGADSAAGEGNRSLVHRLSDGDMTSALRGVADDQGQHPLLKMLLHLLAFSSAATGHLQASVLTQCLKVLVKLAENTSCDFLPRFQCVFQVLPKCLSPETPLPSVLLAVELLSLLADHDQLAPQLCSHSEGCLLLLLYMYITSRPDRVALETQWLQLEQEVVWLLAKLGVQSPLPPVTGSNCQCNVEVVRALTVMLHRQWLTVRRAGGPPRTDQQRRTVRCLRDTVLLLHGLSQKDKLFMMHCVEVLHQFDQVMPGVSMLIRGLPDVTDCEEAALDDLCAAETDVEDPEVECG

half-life at 1 μM ([1]; CD-1, 1 μM compound): 58.3 min
microsomal CLint at 1 μM ([1]; CD-1, read-out: CLint(mic)): 23.8 µL/min/mg
Remain % (T = 60 min) ([1]; T = 60 min): 44.4%
IC50 (ATR): 17.4 nM
solubility at 24 h [2]: 1140 µg/mL (≈ 2880 µM)
SMILES: C[C@@H]1COCCN1c1cc(N2CC3CCC(C2)O3)nc2c(-c3cc[nH]n3)cnn12 [Example 1, 3-(7-((R)-3-methylmorpholino)-3-(1H-pyrazol-3-yl)pyrazolo[1,5-a]pyrimidin-5-yl)-8-oxa-3-azabicyclo[3.2.1]octane]
